This is an account of results in PubChem BioAssay (NCI).

Among the test systems are OVCAR-5 ovarian; ACHN renal; NCI-H226 lung; A498 renal; TK-10 renal; RPMI-8226 leukemia; OVCAR-3 ovarian; NCI-H522 lung; HCT-15 colon; OVCAR-4 ovarian.
Common to all, as to experiment: NCI anticancer screen, dose series, 48 h

“And” between values parts separate entries of the source, which are not always exact repeats. Equal entries are not always repeated.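 Following 48 hours of exposure in 96-well plates, responses at five concentrations were used to interpolate endpoints linearly. At the GI50, growth is halved. At the TGI there is no net growth.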

Turning to `COC(=O)[C@]12CC[C@@H](C)[C@H](C)[C@@H]1C1=CC[C@@H]3[C@@]4(C)C[C@@H](OC(=O)c5ccco5)[C@H](O)[C@@](C)(CO)[C@@H]4[C@H](O)C[C@@]3(C)[C@]1(C)CC2`, the GI50 in the assay on OVCAR-5 ovarian is 2.13 µM; in the assay on ACHN renal, 2.76 µM; in the assay on NCI-H226 lung, 2.3 µM; in the assay on A498 renal, 2.5 µM; with TK-10 renal, 2.49 µM; in the assay with RPMI-8226 leukemia, 2.55 µM. The GI50 is 2.19 µM in the assay with OVCAR-3 ovarian, 1.82 µM in the assay with NCI-H522 lung, 1.84 µM in the assay on HCT-15 colon and 3.41 µM in the assay with OVCAR-4 ovarian. Also, the TGI in the assay on OVCAR-5 ovarian is 5.51 µM; in the assay on ACHN renal it was 7.69 µM; in the assay with NCI-H226 lung, 6.05 µM; with A498 renal it was 7.75 µM; in the assay with TK-10 renal, 7.85 µM; with RPMI-8226 leukemia it was 7.56 µM. Also, the TGI stood at 4.73 µM in the assay with OVCAR-3 ovarian, 3.96 µM with NCI-H522 lung, 3.89 µM in the assay on HCT-15 colon and 13.5 µM in the assay on OVCAR-4 ovarian.

As to `O=C1Cc2cc(CCn3ccnc3)c(Cl)cc2N1`, the GI50 in the assay on OVCAR-5 ovarian is 44.8 µM; in the assay with ACHN renal it was 20.3 µM; in the assay on NCI-H226 lung, above 100 µM; in the assay on A498 renal, 2.19 µM; in the assay with TK-10 renal, above 100 µM; with RPMI-8226 leukemia, 46.2 µM. Further, the GI50 in the assay with OVCAR-3 ovarian is 9.31 µM; in the assay with NCI-H522 lung it was 4.74 µM; in the assay with HCT-15 colon, 7.07 µM; in the assay with OVCAR-4 ovarian it was 45 µM. Also, the TGI in the assay with OVCAR-5 ovarian is above 100 µM; with ACHN renal it was above 100 µM; in the assay on NCI-H226 lung, above 100 µM; with A498 renal, 61.1 µM; in the assay with TK-10 renal it was above 100 µM; with RPMI-8226 leukemia, above 100 µM. Moreover, the TGI was 78.1 µM in the assay with OVCAR-3 ovarian, 47.9 µM in the assay on NCI-H522 lung, above 100 µM in the assay with HCT-15 colon and above 100 µM in the assay with OVCAR-4 ovarian.

On to `Fc1ccc(-c2nc(-c3nc4ccc(Cl)cc4[nH]3)cc3c2[nH]c2ccccc23)cc1`, for which the GI50 in the assay on OVCAR-5 ovarian was 6.13 µM; with ACHN renal, 3.06 µM; in the assay with NCI-H226 lung it was 3.34 µM; in the assay with A498 renal, 2.01 µM; in the assay on TK-10 renal, 3.35 µM; with RPMI-8226 leukemia, 1.84 µM. Also, the GI50 is 2.74 µM with OVCAR-3 ovarian, 2.74 µM in the assay with NCI-H522 lung, 3.63 µM in the assay on HCT-15 colon and 4.81 µM in the assay with OVCAR-4 ovarian. Moreover, the TGI is 22.1 µM with OVCAR-5 ovarian; 13.7 µM with ACHN renal; 15.5 µM in the assay on NCI-H226 lung; 9.71 µM in the assay on A498 renal; 9.86 µM in the assay with TK-10 renal; 6.58 µM in the assay on RPMI-8226 leukemia. The TGI was 6.87 µM with OVCAR-3 ovarian, 12.9 µM in the assay with NCI-H522 lung, 15.9 µM in the assay on HCT-15 colon and 17.2 µM with OVCAR-4 ovarian.

As for `CCOc1ccc(Cc2nccc3cc(OCC)c(OCC)cc23)cc1OCC`, the GI50 in the assay with OVCAR-5 ovarian is 4.58 µM; with ACHN renal it was 7.54 µM; in the assay on NCI-H226 lung, 6 µM; in the assay with A498 renal, 0.763 µM; in the assay with TK-10 renal, 11 µM; in the assay on RPMI-8226 leukemia it was 2.01 µM. Further, the GI50 was 10.5 µM in the assay on OVCAR-3 ovarian, 2.09 µM in the assay on NCI-H522 lung, 10.2 µM in the assay on HCT-15 colon and 9.74 µM in the assay with OVCAR-4 ovarian. The TGI in the assay on OVCAR-5 ovarian was 22 µM; with ACHN renal, 45.1 µM; in the assay on NCI-H226 lung, 23.8 µM; with A498 renal, 19.9 µM; with TK-10 renal, 32.5 µM; in the assay with RPMI-8226 leukemia, 22.4 µM. Further, the TGI with OVCAR-3 ovarian was 23.6 µM; with NCI-H522 lung it was 15 µM; in the assay on HCT-15 colon, 29.8 µM; with OVCAR-4 ovarian it was 26 µM.

Consider `CC(=O)Nc1ccc2nncnc2c1`, for which the TGI with OVCAR-5 ovarian, in the assay on ACHN renal, in the assay on NCI-H226 lung, with A498 renal, in the assay on TK-10 renal and in the assay with RPMI-8226 leukemia was above 100 µM each time. Further, the TGI in the assay with OVCAR-3 ovarian, in the assay with NCI-H522 lung, in the assay with HCT-15 colon and with OVCAR-4 ovarian was above 100 µM in each case.

For the compound `Cc1c2ccccc2c(C)c2c3c(ccc12)C(=O)C=CC3=O`, the TGI in the assay with OVCAR-5 ovarian is above 100 µM; with ACHN renal, 33.3 µM; in the assay with NCI-H226 lung it was above 100 µM; in the assay with A498 renal, above 100 µM; in the assay with TK-10 renal, 36.7 µM; with RPMI-8226 leukemia, 60.6 µM. Moreover, the TGI in the assay with OVCAR-3 ovarian stood at 38.3 µM; with NCI-H522 lung, 28 µM; in the assay with HCT-15 colon, 42.4 µM; in the assay with OVCAR-4 ovarian, 39.4 µM.

In the case of `C/C(CN1C(=O)c2ccccc2C1=O)=N\NS(=O)(=O)c1ccccc1`, the TGI with OVCAR-5 ovarian, in the assay on ACHN renal, with NCI-H226 lung, with A498 renal, with TK-10 renal and in the assay on RPMI-8226 leukemia was above 100 µM in each case. Besides, the TGI with OVCAR-3 ovarian, with NCI-H522 lung, in the assay on HCT-15 colon and in the assay with OVCAR-4 ovarian was above 100 µM each time.

For `O=C1NC(=NCC(CO)c2ccccc2)S/C1=C\c1ccc2ncccc2c1` (stereo not drawn), the GI50 in the assay on OVCAR-5 ovarian is above 25 µM; with ACHN renal, 24.4 µM; with NCI-H226 lung, above 25 µM; in the assay on A498 renal, above 15.3 µM; with TK-10 renal it was above 21.8 µM; in the assay with RPMI-8226 leukemia, 14.6 µM. Besides, the GI50 in the assay on OVCAR-3 ovarian was 13.8 µM; in the assay on NCI-H522 lung, above 14.1 µM; with HCT-15 colon, above 21.8 µM; in the assay on OVCAR-4 ovarian it was above 22.1 µM. In addition, the TGI with OVCAR-5 ovarian, in the assay with ACHN renal, with NCI-H226 lung, in the assay on A498 renal, in the assay with TK-10 renal and in the assay on RPMI-8226 leukemia was above 25 µM throughout. Also, the TGI with OVCAR-3 ovarian, with NCI-H522 lung, with HCT-15 colon and in the assay with OVCAR-4 ovarian was above 25 µM in each case.

On to `CC1=C(N2CC2)C(=O)C(CO)=C(N2CC2)C1=O`, for which the GI50 in the assay on OVCAR-5 ovarian is 0.194 µM; in the assay with ACHN renal, 0.00047 µM; in the assay on A498 renal, 0.0158 µM; with TK-10 renal, 0.0405 µM; with RPMI-8226 leukemia, 0.00102 µM; in the assay with OVCAR-3 ovarian, 0.0377 µM. Besides, the GI50 in the assay with NCI-H522 lung was 0.0112 µM; with HCT-15 colon, 0.02 µM; in the assay with OVCAR-4 ovarian, 0.195 µM. In addition, the TGI in the assay on OVCAR-5 ovarian is 0.74 µM; in the assay with NCI-H226 lung, 0.166 µM; with A498 renal, 0.041 µM and 0.22 µM; in the assay with TK-10 renal, 0.721 µM and 0.309 µM; in the assay on RPMI-8226 leukemia it was 0.0147 µM and 0.0824 µM; in the assay on OVCAR-3 ovarian, 0.557 µM and 0.0564 µM. The TGI with NCI-H522 lung was 0.0385 µM and 0.0489 µM; in the assay on HCT-15 colon, 0.584 µM; with OVCAR-4 ovarian, 0.904 µM and 0.587 µM.

Regarding `CCCNc1nc(N(C)O)nc(N(C)O)n1`, the GI50 is 6.09 µM in the assay with OVCAR-5 ovarian; 1.03 µM with ACHN renal; 6.49 µM with NCI-H226 lung; 9.51 µM in the assay with A498 renal; 1.44 µM with TK-10 renal; 0.689 µM in the assay on RPMI-8226 leukemia. Moreover, the GI50 in the assay on OVCAR-3 ovarian is 0.783 µM; with NCI-H522 lung, 1.11 µM; in the assay on HCT-15 colon, 0.504 µM; with OVCAR-4 ovarian it was 2.48 µM. In addition, the TGI in the assay on OVCAR-5 ovarian is above 100 µM; with ACHN renal, above 100 µM; in the assay with NCI-H226 lung, above 93.6 µM; in the assay on A498 renal, above 62.6 µM; with TK-10 renal, above 100 µM; with RPMI-8226 leukemia, 4.46 µM. The TGI in the assay on OVCAR-3 ovarian was 9.23 µM; with NCI-H522 lung, 7.3 µM; in the assay with HCT-15 colon, above 100 µM; in the assay on OVCAR-4 ovarian it was above 100 µM.

`O=C(c1cc(=O)c2ccc(O)cc2o1)c1ccc(Cl)cc1Cl`: the TGI in the assay on OVCAR-5 ovarian was above 100 µM; with ACHN renal it was above 100 µM; in the assay with NCI-H226 lung, 99.6 µM; in the assay with A498 renal, above 100 µM; with TK-10 renal it was above 100 µM; with RPMI-8226 leukemia, above 72.7 µM. The TGI is above 58.9 µM in the assay with OVCAR-3 ovarian, above 59 µM with NCI-H522 lung, above 100 µM with HCT-15 colon and above 90.1 µM with OVCAR-4 ovarian.

For the compound `Nc1nc(N)c2cc(CNc3ccc(Cl)c(Cl)c3)ccc2n1`, the GI50 with OVCAR-5 ovarian was 0.756 µM; in the assay with ACHN renal it was 0.495 µM; in the assay with NCI-H226 lung, 1.58 µM; in the assay on A498 renal, 1.76 µM; in the assay with TK-10 renal it was 1.42 µM; in the assay with RPMI-8226 leukemia, 1.61 µM. Besides, the GI50 in the assay with OVCAR-3 ovarian was 1.1 µM; in the assay on NCI-H522 lung it was 0.567 µM; with HCT-15 colon, 0.365 µM; with OVCAR-4 ovarian, 1.16 µM. Further, the TGI was found to be 2.05 µM with OVCAR-5 ovarian; 1.71 µM with ACHN renal; 3.21 µM in the assay on NCI-H226 lung; 8.54 µM in the assay on A498 renal; 2.73 µM with TK-10 renal; 3.62 µM in the assay with RPMI-8226 leukemia. For the same compound, the TGI with OVCAR-3 ovarian was found to be 2.29 µM; with NCI-H522 lung it was 2.01 µM; with HCT-15 colon, 1.72 µM; in the assay with OVCAR-4 ovarian it was 2.37 µM.

Turning to `CC(=O)NNc1nc(C)c(C(=O)NNC(=O)C(=O)Nc2ccc(C)c(C)c2)s1`, the TGI in the assay with OVCAR-5 ovarian, in the assay on ACHN renal, in the assay with NCI-H226 lung, in the assay on A498 renal, in the assay with TK-10 renal and in the assay with RPMI-8226 leukemia was above 100 µM throughout. In addition, the TGI in the assay with OVCAR-3 ovarian is 81.1 µM; in the assay on NCI-H522 lung, 46.3 µM; in the assay on HCT-15 colon, above 100 µM; with OVCAR-4 ovarian, above 100 µM.

Take `CCN1CCN(CCOc2ccc(CNc3ccc4nc(CCC5CCCCC5)[nH]c4c3)cc2)CC1`: the GI50 was 2.33 µM in the assay with OVCAR-5 ovarian; 2.79 µM with ACHN renal; 1.99 µM with NCI-H226 lung; 1.44 µM in the assay on A498 renal; 2.93 µM in the assay on TK-10 renal; 1.43 µM in the assay with RPMI-8226 leukemia. The GI50 in the assay with OVCAR-3 ovarian was 1.89 µM; in the assay on NCI-H522 lung, 2.44 µM; with HCT-15 colon, 1.43 µM; in the assay with OVCAR-4 ovarian, 2.61 µM. Further, the TGI in the assay with OVCAR-5 ovarian amounted to 7.18 µM; in the assay on ACHN renal it was 7.96 µM; in the assay with NCI-H226 lung it was 4.94 µM; with A498 renal, 3.35 µM; in the assay on TK-10 renal it was 8.06 µM; in the assay on RPMI-8226 leukemia, 3.79 µM. The TGI in the assay on OVCAR-3 ovarian came out at 4.34 µM; in the assay on NCI-H522 lung, 5.95 µM; in the assay on HCT-15 colon, 3.41 µM; in the assay on OVCAR-4 ovarian, 11.1 µM.
